One assay has as its system B. anthracis. The format is cell-based, Bacillus anthracis.
For a further assay, the system named is Staphylococcus aureus. The format is cell-based.
Assay [1] concerns non-anthracis gram positive species. The format is cell-based.
In another assay the test system is B. megaterium. The format is cell-based.
Another assay has as its system B. subtilis. The format is cell-based.
The test system of another assay is B. cereus strains. The format is cell-based.
Another assay relates to E. coli. The format is cell-based, Escherichia coli.
A further assay has as its system Klebsiella pneumoniae. The format is cell-based.
The subject of a further assay is Citrobacter freundii. The format is cell-based.
In another assay the test system is B. thuringiensis. The format is cell-based.
For a further assay, the system named is mold colonies. The format is cell-based.
Assay [2] relates to 13 diverse bacterial stock species. The format is cell-based.

With `O=C([O-])CN(CCN(CC(=O)O)CC(=O)O)CC(=O)[O-].[Na+].[Na+]` [EDTA, disodium ethylenediaminetetraacetate], the “effect on B. anthracis growth” value with B. anthracis is “undesirably inhibiting”. Besides, the “effect on Staphylococcus aureus growth” value with Staphylococcus aureus is reported as “no effect”.
In the same order, the values of lysostaphin are “without affecting” and “severely retarded”.
Take `CC(=O)[O-].[Tl+]` [thallous acetate]: in the assay with B. anthracis, the “B. anthracis growth and colony formation” value is “allowed B. anthracis to grow readily and form colonies”; the “delay of appearance of visible B. anthracis colonies” value was “delayed approximately one day”. In [1], the “restriction of growth of non-anthracis gram positive species including some B. cereus strains” value was “not sufficiently restrictive” and the “restriction of non-anthracis gram positive spore forming species (including some B. cereus strains)” value is recorded as “adequately restrictive”. Also, in the assay with Staphylococcus aureus, the “susceptibility of Staphylococcus aureus” value is listed as “completely resistant”.
In the case of `CO/N=C(\C(=O)N[C@@H]1C(=O)N2C(C(=O)O)=C(COC(C)=O)CS[C@H]12)c1csc(N)n1` [cefotaxime], the “appearance of B. anthracis colonies” value with B. anthracis is listed as “failed to appear”. For the same compound, in the assay on B. megaterium, the “growth of B. megaterium” value was “inhibited”. Further, the “growth of B. subtilis” value with B. subtilis is recorded as “inhibited”. Further, in the assay with B. cereus strains, the “growth of some strains of B. cereus” value is “grow to form colonies”. The “growth of Staphylococcus aureus” value in the assay on Staphylococcus aureus is on record as “inhibited”. Further, in the assay with E. coli, the “growth of E. coli” value is recorded as “inhibited”. In addition, the “growth of Klebsiella pneumoniae” value in the assay with Klebsiella pneumoniae is on record as “inhibited”. Further, the “growth of Citrobacter freundii” value with Citrobacter freundii is “inhibited”. Further, the “growth of B. thuringiensis” value with B. thuringiensis is on record as “inhibited”.
In the case of polymyxin B sulfate, in the assay with E. coli, the “growth of E. coli strains” value is “not inhibited”.
As to `C[C@@H]1C[C@@H]([C@H](O)CC2CC(=O)NC(=O)C2)C(=O)[C@@H](C)C1` [cycloheximide], in the assay on mold colonies, the “effect on mold contamination” value is “eliminated all mold contamination”. Moreover, in assay [2], the “effect on pattern of bacterial growth” value is reported as “did not alter the pattern of bacterial growth”.
For `[H]/N=C(/N)N[C@H]1[C@H](O)[C@@H](O)[C@H](O[C@@H]2O[C@@H](C)[C@](O)(C=O)[C@H]2O[C@@H]2O[C@@H](CO)[C@H](O)[C@@H](O)[C@@H]2NC)[C@@H](N/C(N)=N\[H])[C@@H]1O` [streptomycin], the “growth of E. coli strains” value with E. coli is “inhibited”.

(Values after patent publication US20040058428A1 (priority 2002, published 2004).)
